According to patent publication US20050037989A1, “Inhibition of gene function by delivery of polynucleotide-based gene expression inhibitors to mammalian cells in vivo” (priority 2001, published 2005):
d = 2'-deoxy (DNA); r = 2'-OH (RNA)

Tests used:
Luc+ expression [1] = assay: Dual luciferase in muscle after iliac artery delivery of plasmids and siRNA; format: in vivo, rats; conditions: 5.0 μg siRNA, four days, compared to control siRNA-ori
Procedure: Inhibition of Luciferase expression by siRNA is gene specific and siRNA specific in muscle in vivo after arterial delivery. 10 μg pGL3 control and 1 μg pRL-SV40 with 5.0 μg siRNA-luc+ or 5.0 siRNA-ori were injected into iliac artery of rats under increased pressure. Specifically, animals were anesthetized and the surgical field shaved and prepped with an antiseptic. The animals were placed on a heating pad to prevent loss of body heat during the surgical procedure. A midline abdominal incision will be made after which skin flaps were folded away and held with clamps to expose the target area. A moist gauze was applied to prevent excessive drying of internal organs. Intestines were moved to visualize the iliac veins and arteries. Microvessel clips were placed on the external iliac, caudal epigastric, internal iliac, deferent duct, and gluteal arteries and veins to block both outflow and inflow of the blood to the leg. An efflux enhancer solution (e.g., 0.5 mg papaverine in 3 ml saline) was injected into the external iliac artery though a 25 g needle, followed by the plasmid DNA and siRNA containing solution (in 10 ml saline) 1-10 minutes later. The solution was injected in approximately 10 seconds. The microvessel clips were removed 2 minutes after the injection and bleeding was controlled with pressure and gel foam. The abdominal muscles and skin were closed with 4-0 dexon suture. […]

luc+ gene = assay: Inhibition of luciferase gene expression by siRNA in liver cells in vivo (pMIR48 co-injected, tail vein); set-up: species or system ICR mice; conditions: liver one day after injection
Procedure: Plasmid pMIR48 (10 μg), containing the luc+ coding region (Promega Corp.) and a chimeric intron downstream of the cytomegalovirus major immediate-early enhancer/promoter, was mixed with 0.5 or 5 μg siRNA-luc+, diluted in 1-3 ml Ringer's solution (147 mM NaCl, 4 mM KCl, 1.13 mM CaCl2) and injected into the tail vein of ICR mice over […]. One day after injection, the livers were harvested and homogenized in lysis buffer (0.1% Triton X-100, 0.1 M K-phosphate, 1 mM DTT, pH 7.8). Insoluble material was cleared by centrifugation. 10 μl of the cellular extract or extract diluted 10× was analyzed for luciferase activity using the Enhanced Luciferase Assay kit (Mirus).

Luc+ expression [2] = assay: Dual luciferase (pGL3 control + pRL-SV40) co-injected with siRNA, increased-pressure tail vein injection, organs assayed; format: in vivo, mice; conditions: one day; for inhibition of target Luc+ expression (Luc+/Renilla Luc ratio): liver, normalized to no siRNA control
Procedure: Inhibition of Luciferase expression by siRNA is gene specific in liver in vivo. Two plasmids were injected simultaneously either with or without siRNA-luc+ as described in Example 1. The first plasmid, pGL3 control (Promega Corp, Madison, Wis.), contains the luc+ coding region and a chimeric intron under transcriptional control of the simian virus 40 enhancer and early promoter region. The second, pRL-SV40, contains the coding region for the Renilla reniformis luciferase under transcriptional control of the Simian virus 40 enhancer and early promoter region.
10 μg pGL3 control and 1 μg pRL-SV40 was injected as described in Example 1 with 0, 0.5 or 5.0 μg siRNA-luc+. One day after injection, the livers were harvested and homogenized as described in Example 1. Luc+ and Renilla Luc activities were assayed using the Dual Luciferase Reporter Assay System (Promega).
Inhibition of Luciferase expression by siRNA is gene specific and siRNA specific in liver in vivo. 10 μg pGL3 control and 1 μg pRL-SV40 were injected as described in Example 1 with either 5.0 μg siRNA-luc+ or 5.0 control siRNA-ori. One day after injection, the livers were harvested and homogenized as described in Example 1. Luc+ and Renilla Luc activities were assayed using the Dual Luciferase Reporter Assay System (Promega). Ratios of Luc+ to Renilla Luc were normalized to the siRNA-ori control. siRNA-Luc+ inhibited Luc+ expression in liver by 93% compared to siRNA-ori indicating inhibition by siRNAs is sequence specific in this organ.
In vivo delivery of siRNA by increased-pressure intravascular injection results in strong inhibition of target gene expression in a variety of organs. 10 μg pGL3 Control and 1 μg pRL-SV40 were co-injected with 5 μg siRNA-Luc+ or 5 μg control siRNA (siRNA-ori) targeted to sequence in the plasmid backbone as in example 1. One day after injection, organs were harvested and homogenized and the extracts assayed for target firefly luciferase+ activity and control Renilla luciferase activity. Firefly luciferase+activity was normalized to that Renilla luciferase activity in order to compensate for differences in transfection efficiency between animals.

[3] = Example 4: 5 μg siRNA, compared to control siRNA-ori

Q: Which results are given for “siRNA-luc+: annealed oligomers SEQ ID 4 and SEQ ID 5 containing luc+ coding sequence, positions 155-173 of the luc+ reading frame (chain 1 CUUACGCUGAGUACUUCGATT; chain 2 UCGAAGUACUCAGCGUAAGTT; sugars from the 5' end r19 d2, backbone not given here; listed as Photinus pyralis)”?
A: inhibition of Luc+ expression in gastrocnemius (Luc+ expression [1]): 92%; inhibition of Luc+ expression in quadriceps (Luc+ expression [1]): 85%; inhibition of Luc+ activity (luc+ gene; 0.5 μg siRNA co-injected with 10 μg pMIR48, tail vein, vs 10 μg pMIR48 alone): 69%; inhibition of Luc+ activity (luc+ gene; 5 μg siRNA co-injected with 10 μg pMIR48, tail vein): 93%; inhibition of target Luc+ expression (Luc+/Renilla Luc ratio) (Luc+ expression [2]; 0.5 μg co-injected siRNA): 73%; inhibition of target Luc+ expression (Luc+/Renilla Luc ratio) (Luc+ expression [2]; 5.0 μg co-injected siRNA): 82%; inhibition of Luc+ expression in liver (Luc+ expression [2]; Example 3: 5.0 μg siRNA, compared to siRNA-ori): 93%; inhibition of firefly luciferase+ activity, heart (Luc+ expression [2]; [3]): 74%; inhibition of firefly luciferase+ activity, kidney (Luc+ expression [2]; [3]): 87%; inhibition of firefly luciferase+ activity, liver (Luc+ expression [2]; [3]): 95%; inhibition of firefly luciferase+ activity, lung (Luc+ expression [2]; [3]): 81%; inhibition of firefly luciferase+ activity, pancreas (Luc+ expression [2]; [3]): 92%; inhibition of firefly luciferase+ activity, spleen (Luc+ expression [2]; [3]): 77%
